One may read the Ki as a measure of affinity in units of concentration, obtained from inhibition or displacement. A word on the inhibition: it is the relative decrease from the control value, in per cent.

These results are taken from US20100261765A1, “MINERALOCORTICOID RECEPTOR MODULATORS” (priority 2007, published 2010).

For data set [1], the target named is T1, recombinant rhesus mineralocorticoid receptor (Macaca mulatta, UniProt A0A5F8ATS5).
T1 construct: made in house; host or cells: insect cells infected with recombinant baculovirus; clarified lysate used
T1 sequence (A0A5F8ATS5 1-984): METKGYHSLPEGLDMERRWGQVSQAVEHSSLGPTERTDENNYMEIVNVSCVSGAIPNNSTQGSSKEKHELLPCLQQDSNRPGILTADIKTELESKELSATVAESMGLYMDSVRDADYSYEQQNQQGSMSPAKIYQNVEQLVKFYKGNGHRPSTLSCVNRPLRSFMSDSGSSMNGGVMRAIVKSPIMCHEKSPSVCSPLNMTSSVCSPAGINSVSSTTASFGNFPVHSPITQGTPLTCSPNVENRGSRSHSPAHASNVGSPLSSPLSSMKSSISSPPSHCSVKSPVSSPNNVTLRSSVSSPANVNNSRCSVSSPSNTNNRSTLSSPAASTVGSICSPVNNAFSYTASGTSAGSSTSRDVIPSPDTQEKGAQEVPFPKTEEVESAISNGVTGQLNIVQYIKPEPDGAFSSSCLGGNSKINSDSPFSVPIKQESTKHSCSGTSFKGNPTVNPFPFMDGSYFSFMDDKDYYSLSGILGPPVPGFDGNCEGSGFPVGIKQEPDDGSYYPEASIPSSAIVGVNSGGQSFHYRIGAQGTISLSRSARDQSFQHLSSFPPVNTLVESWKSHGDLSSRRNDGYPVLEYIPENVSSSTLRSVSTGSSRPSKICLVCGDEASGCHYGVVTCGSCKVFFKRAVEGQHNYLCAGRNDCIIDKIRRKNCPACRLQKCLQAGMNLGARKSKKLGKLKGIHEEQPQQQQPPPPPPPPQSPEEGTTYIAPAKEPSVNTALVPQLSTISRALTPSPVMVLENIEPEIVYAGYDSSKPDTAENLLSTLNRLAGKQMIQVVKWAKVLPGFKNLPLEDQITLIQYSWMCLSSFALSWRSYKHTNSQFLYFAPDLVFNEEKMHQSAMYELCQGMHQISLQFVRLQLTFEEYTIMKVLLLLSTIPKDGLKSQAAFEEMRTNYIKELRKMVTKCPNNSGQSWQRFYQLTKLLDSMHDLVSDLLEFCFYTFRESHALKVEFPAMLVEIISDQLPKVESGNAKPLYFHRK
Put plainly: Mineralocorticoid receptor binding affinity, [3H]-aldosterone filter binding assay. On the procedure:
Measurement of Mineralocorticoid Receptor Binding Affinity
The binding affinity of compounds for the mineralocorticoid receptor was determined by measuring their ability to prevent binding of radiolabeled aldosterone to recombinant rhesus mineralocorticoid receptor in a traditional filter binding assay protocol.
Rhesus mineralocorticoid receptor cDNA was cloned from a cDNA library using and used to prepare a recombinant baculovirus encoding the rhesus mineralocorticoid receptor coding sequence by standard molecular biological and cell biological methods. […] Cells were collected and lysed. The lysates were clarified by centrifugation and stored at −80 C until use in the radioligand binding assay.
[^3H]-Aldosterone (1 mCi/ml, 70-100 Ci/mmol) was purchased from Perkin Elmer (NET419). Test compounds were dissolved in DMSO and diluted in DMSO to 50 times the desired final concentrations for 3-fold serial dilution dose response curves. […] The insect cell lysate containing rhesus mineralocorticoid receptor was thawed and diluted to 0.7 mg protein/mL. Assay were started by combining 20 μL of test compound solution, 920 μL of diluted insect cell lysate, and 60 μL of [^3H]-aldosterone working solution in 2-mL 96-well polypropylene square well plates (USA Scientific) at 20° C. The mixture was incubated for 3 hr with continuous agitation on a platform shaker. […] The filter plate was washed 3 times with 0.5 mL of 50 mM Tris-HCl, pH 7.4 and then dried overnight at 37° C. in a vacuum oven. […] Non-specific radioligand binding was determined by adding non-radiolabeled aldosterone (0.5 mM in DMSO) to the assay mixture to a final concentration of 10 μM in place of test compound. IC50 and Ki values were determined using a four parameter logistic fit using a customized assay data analyzer software package.

A further data set concerns the target T2, Cav1.2 (Homo sapiens, UniProt Q13936).
T2 construct: expressed in transfected cells; host or cells: HEK293 cell line (Xia, et al., 2004) also expressing Kir2.3
Nature of the data set: Calcium channel block, FLIPR TETRA fluorescence assay in HEK293 cells expressing L-type calcium channels. It is filed as cell-based. To be noted: pH 7.2, 25 mM potassium; for inhibition at 30 min, 0.3 μM: 0.3 μM compound, read-out: FLIPRIETRA Cav1.2 % Inhibition 0.3 μM; for inhibition at 30 min, 1 μM: 1 μm compound, read-out: FLIPRIETRA Cav1.2 % Inhibition 1 μm; for inhibition at 30 min, 3 μM: 3 μm compound, read-out: FLIPRIETRA Cav1.2 % Inhibition 3 μm; for inhibition at 30 min, 10 μM: 10 μm compound, read-out: FLIPRIETRA Cav1.2 % Inhibition 10 μm; for inhibition at 30 min, 30 μM: 30 μm compound, read-out: FLIPRIETRA Cav1.2 % Inhibition 30 μm. On the procedure: Measurement of Calcium Channel Block
A high-throughput fluorescence assay for state-dependent block of L-type channels was established as a counterscreen for blockers of N-type calcium channels. […] This allows the cell membrane potential to be preset during compound incubation, which can be used to assay state-dependent channel block. Running the assay in the presence of high potassium (25 mM) sets the membrane potential to a value (−35 mV) at which approximately half of the calcium channels are inactivated and some are open. This condition favors block by many L-type calcium channel blockers that lower blood pressure, including dihydropyridines, phenylalkylamines and benzothiazepines.
Initially, the compounds were incubated in 0.005 μM calcium and 25 mM potassium for 30 minutes. Calcium influx was triggered by buffer addition that raises the calcium concentration to 2 mM while maintaining the potassium concentration at 25 mM. Changes in intracellular calcium were then monitored using a calcium-sensitive fluorescent dye (fluo-4) and a FLIPR^TETRA plate reader.
The following experimental protocol was used:
1. Cells were seeded in a Poly-D-Lysine Coated 384-well plate (50 μl/well) and incubated overnight at 37° C. under 10% CO2;
4. Cells were then incubated in the dark at 25° C. for 30 minutes;
5. […] 25 mM KCl, 0.005 mM CaCl2, 1.7 mM MgCl2, 10 HEPES, pH=7.2;
6. 0.025 ml of 25 mM K PPB was then added, with or without the presence of a test compound;
7. Cells incubated in the dark at 25° C. for 30 min
8. Cell plates are then read on the FLIPR^TETRA instrument, Excitation=480 nm, Emission=535 nm;

Setting [2] is: average of Rep#1 and Rep#2, read-out: MRBIND Ki (nM) Average.
Where [3] appears, read: replicate 1, read-out: MRBIND Ki (nM) Rep#1.
Setting [4] is: replicate 2, read-out: MRBIND Ki (nM) Rep#2.

Molecules are shown by their SMILES. Read-outs that look alike come from different tables or passages of the source.

T2 sequence (Q13936 whole entry): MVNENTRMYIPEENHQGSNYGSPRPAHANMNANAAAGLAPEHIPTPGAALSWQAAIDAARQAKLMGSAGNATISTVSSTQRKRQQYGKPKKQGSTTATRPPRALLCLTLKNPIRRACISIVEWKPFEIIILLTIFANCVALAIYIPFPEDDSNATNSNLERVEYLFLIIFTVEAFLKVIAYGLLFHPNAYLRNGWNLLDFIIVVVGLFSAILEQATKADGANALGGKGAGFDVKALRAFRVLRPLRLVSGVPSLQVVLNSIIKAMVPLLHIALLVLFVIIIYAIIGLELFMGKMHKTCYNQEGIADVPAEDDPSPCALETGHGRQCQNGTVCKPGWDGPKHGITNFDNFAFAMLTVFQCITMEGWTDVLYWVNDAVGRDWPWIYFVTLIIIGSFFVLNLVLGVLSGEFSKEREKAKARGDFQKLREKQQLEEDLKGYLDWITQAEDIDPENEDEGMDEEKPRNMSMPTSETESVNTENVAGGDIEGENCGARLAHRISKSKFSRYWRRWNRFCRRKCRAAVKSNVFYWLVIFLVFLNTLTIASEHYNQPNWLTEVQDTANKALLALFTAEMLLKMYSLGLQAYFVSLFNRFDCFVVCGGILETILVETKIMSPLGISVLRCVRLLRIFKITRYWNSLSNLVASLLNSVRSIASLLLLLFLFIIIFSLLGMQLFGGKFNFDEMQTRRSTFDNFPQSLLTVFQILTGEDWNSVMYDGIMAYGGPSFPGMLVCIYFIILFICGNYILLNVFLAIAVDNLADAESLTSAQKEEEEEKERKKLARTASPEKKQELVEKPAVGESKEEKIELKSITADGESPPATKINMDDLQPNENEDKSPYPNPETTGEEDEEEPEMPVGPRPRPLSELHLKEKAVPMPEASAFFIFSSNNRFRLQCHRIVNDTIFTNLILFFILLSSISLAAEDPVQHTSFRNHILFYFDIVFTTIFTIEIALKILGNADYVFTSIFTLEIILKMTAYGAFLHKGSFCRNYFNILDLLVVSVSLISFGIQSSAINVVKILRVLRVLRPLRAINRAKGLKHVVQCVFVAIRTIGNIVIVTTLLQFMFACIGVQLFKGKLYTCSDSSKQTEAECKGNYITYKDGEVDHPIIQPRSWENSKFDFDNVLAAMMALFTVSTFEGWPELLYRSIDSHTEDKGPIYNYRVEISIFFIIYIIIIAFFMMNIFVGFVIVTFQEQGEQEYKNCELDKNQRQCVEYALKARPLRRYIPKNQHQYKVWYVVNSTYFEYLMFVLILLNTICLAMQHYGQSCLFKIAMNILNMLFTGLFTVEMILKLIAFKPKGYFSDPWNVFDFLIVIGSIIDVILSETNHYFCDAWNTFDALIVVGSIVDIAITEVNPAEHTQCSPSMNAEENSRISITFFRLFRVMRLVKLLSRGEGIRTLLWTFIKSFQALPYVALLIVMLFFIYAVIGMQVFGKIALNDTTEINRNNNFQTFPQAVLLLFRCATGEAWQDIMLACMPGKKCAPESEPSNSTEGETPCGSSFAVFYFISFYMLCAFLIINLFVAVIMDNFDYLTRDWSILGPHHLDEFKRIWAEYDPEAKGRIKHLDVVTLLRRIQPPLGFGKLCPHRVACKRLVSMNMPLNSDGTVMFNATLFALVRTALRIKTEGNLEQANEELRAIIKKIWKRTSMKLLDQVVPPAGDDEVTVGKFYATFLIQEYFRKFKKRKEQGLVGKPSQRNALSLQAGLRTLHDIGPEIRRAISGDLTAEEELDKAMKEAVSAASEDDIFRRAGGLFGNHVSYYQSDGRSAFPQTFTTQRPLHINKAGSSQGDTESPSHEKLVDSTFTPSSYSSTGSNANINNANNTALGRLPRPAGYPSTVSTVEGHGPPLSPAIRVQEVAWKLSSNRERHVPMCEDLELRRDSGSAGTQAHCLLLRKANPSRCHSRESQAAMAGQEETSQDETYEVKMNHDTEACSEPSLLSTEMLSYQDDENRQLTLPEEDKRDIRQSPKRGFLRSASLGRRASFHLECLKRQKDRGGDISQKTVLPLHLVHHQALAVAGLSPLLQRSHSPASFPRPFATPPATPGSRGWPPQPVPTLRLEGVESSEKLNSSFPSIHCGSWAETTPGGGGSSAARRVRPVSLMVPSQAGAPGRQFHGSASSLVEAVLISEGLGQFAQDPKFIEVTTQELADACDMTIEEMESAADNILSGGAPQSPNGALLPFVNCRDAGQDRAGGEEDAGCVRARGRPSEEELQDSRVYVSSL
T2 sequence (P54289 25-946 partner limits assumed): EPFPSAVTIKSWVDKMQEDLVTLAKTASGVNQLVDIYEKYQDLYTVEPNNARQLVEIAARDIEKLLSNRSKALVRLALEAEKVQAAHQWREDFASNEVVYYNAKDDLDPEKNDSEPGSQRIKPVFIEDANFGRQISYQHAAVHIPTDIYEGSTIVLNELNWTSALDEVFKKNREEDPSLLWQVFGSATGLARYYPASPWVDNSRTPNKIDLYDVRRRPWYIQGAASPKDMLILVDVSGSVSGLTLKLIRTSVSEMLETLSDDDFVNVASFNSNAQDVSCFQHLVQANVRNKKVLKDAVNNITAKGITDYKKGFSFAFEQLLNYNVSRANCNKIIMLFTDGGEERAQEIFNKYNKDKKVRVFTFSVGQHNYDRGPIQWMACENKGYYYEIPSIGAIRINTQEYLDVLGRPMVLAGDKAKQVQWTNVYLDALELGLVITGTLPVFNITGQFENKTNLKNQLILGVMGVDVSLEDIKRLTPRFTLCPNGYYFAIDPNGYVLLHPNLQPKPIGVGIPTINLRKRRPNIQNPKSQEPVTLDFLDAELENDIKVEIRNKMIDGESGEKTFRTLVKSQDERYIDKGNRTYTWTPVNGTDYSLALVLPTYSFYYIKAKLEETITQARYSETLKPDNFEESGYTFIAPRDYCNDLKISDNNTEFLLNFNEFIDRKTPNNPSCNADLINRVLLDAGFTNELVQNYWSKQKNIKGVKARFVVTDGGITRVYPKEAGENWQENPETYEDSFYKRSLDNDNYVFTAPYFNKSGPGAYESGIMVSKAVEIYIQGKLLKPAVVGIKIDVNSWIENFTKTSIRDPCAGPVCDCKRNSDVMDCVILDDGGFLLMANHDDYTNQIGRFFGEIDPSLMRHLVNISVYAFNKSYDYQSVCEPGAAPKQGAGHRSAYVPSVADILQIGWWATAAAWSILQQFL
T2 sequence (P54289 947-1103 partner limits assumed): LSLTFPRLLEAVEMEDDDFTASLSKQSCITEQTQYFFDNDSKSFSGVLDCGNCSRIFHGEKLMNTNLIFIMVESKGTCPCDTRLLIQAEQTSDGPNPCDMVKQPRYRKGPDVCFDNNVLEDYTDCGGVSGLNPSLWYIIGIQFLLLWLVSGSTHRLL
T2 sequence (Q08289 whole entry partner): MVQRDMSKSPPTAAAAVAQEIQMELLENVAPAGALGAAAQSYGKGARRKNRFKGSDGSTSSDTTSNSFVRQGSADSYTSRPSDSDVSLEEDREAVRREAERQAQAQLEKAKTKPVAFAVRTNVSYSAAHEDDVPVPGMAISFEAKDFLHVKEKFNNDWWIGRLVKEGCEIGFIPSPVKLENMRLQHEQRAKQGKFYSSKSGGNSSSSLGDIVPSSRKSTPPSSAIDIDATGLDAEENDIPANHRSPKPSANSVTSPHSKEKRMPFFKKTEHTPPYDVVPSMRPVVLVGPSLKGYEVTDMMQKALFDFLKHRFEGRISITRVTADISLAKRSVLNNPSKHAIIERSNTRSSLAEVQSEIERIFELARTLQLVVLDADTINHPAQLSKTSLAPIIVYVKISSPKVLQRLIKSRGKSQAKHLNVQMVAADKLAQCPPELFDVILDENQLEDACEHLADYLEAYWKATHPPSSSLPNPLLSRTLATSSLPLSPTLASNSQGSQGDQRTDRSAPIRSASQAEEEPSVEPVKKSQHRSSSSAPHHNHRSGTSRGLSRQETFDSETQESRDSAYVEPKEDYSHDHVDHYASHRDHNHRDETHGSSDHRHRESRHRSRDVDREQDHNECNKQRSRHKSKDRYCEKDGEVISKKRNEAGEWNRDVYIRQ

Consider `CCSC1=C(C#N)C(c2ccccc2Cl)C(C(=O)Nc2ccccc2OC)=C(C)N1` (stereo not drawn) [4-(2-chlorophenyl)-5-cyano-6-(ethylthio)-N-(2-methoxyphenyl)-2-methyl-1,4-dihydropyridine-3-carboxamide], for which, in data set [1] (setting [2]), the inhibition constant Ki was found to be 53 nM. In addition, in data set [1] (setting [3]), the Ki is 90 nM. For the same compound, the Ki in data set [1] (setting [4]) amounted to 16 nM. On Cav1.2, the inhibition at 30 min, 0.3 μM worked out at 41%; the inhibition at 30 min, 1 μM is 83%; the inhibition at 30 min, 3 μM turned out to be 92%; the inhibition at 30 min, 10 μM amounted to 98%. Moreover, the inhibition at 30 min, 30 μM on Cav1.2 is 104%.

With `COc1ccccc1NC(=O)C1=C(C)NC(SC)=C(C#N)C1c1ccccc1Cl` (stereo not drawn) [4-(2-chlorophenyl)-5-cyano-N-(2-methoxyphenyl)-2-methyl-6-(methylthio)-1,4-dihydropyridine-3-carboxamide], in data set [1] (setting [2]), the Ki was 193 nM. The Ki in data set [1] (setting [3]) stood at 250 nM. In data set [1] (setting [4]), the Ki worked out at 137 nM. Further, on Cav1.2, the inhibition at 30 min, 0.3 μM was -3%; the inhibition at 30 min, 1 μM came out at 14%; the inhibition at 30 min, 3 μM was determined as 35%; the inhibition at 30 min, 10 μM stood at 74%.

Turning to `CCCSC1=C(C#N)C(c2ccccc2Cl)C(C(=O)Nc2ccccc2OC)=C(C)N1` (stereo not drawn) [4-(2-chlorophenyl)-5-cyano-N-(2-methoxyphenyl)-2-methyl-6-(propylthio)-1,4-dihydropyridine-3-carboxamide], the Ki in data set [1] (setting [2]) was 14.9 nM. In addition, in data set [1] (setting [3]), the Ki amounted to 11.6 nM. Also, the Ki in data set [1] (setting [4]) was 18.2 nM. In addition, at Cav1.2, the inhibition at 30 min, 0.3 μM came to 31%; the inhibition at 30 min, 1 μM was found to be 69%; the inhibition at 30 min, 3 μM amounted to 90%; the inhibition at 30 min, 10 μM came out at 96%. At Cav1.2, the inhibition at 30 min, 30 μM amounted to 102%.

Regarding `CCOc1ccccc1C1C(C#N)=C(SC)NC(C)=C1C(=O)Nc1ccccc1` (stereo not drawn) [5-cyano-4-(2-ethoxyphenyl)-2-methyl-6-(methylthio)-N-phenyl-1,4-dihydropyridine-3-carboxamide], the inhibition constant Ki in data set [1] (setting [2]) worked out at 1390 nM. The Ki in data set [1] (setting [3]) came out at 1140 nM. Moreover, in data set [1] (setting [4]), the Ki came out at 1650 nM. Besides, on Cav1.2, the inhibition at 30 min, 0.3 μM worked out at 4%; the inhibition at 30 min, 1 μM was found to be 26%; the inhibition at 30 min, 3 μM stood at 55%; the inhibition at 30 min, 10 μM stood at 82%.

Take `COC(=O)C1=C(C)NC(C)=C(C(=O)OC)C1c1cccc2ccccc12` [Dimethyl 2,6-dimethyl-4-(1-naphthyl)-1,4-dihydropyridine-3,5-dicarboxylate]: in data set [1] (setting [2]), the Ki was 61 nM. Also, the Ki in data set [1] (setting [3]) came to 69 nM. Moreover, in data set [1] (setting [4]), the Ki was 53 nM. In addition, on Cav1.2, the inhibition at 30 min, 0.3 μM was determined as 80%; the inhibition at 30 min, 1 μM worked out at 88%; the inhibition at 30 min, 3 μM came to 94%; the inhibition at 30 min, 10 μM was 100%. Moreover, the inhibition at 30 min, 30 μM at Cav1.2 was 104%.

On to `C=CCOC(=O)C1=C(C)NC(C)=C(C(=O)OCC=C)C1c1cccc([N+](=O)[O-])c1` [diallyl 2,6-dimethyl-4-(3-nitrophenyl)-1,4-dihydropyridine-3,5-dicarboxylate], for which the Ki in data set [1] (setting [2]) turned out to be 462 nM. Besides, in data set [1] (setting [3]), the Ki is 472 nM. For the same compound, the Ki in data set [1] (setting [4]) was 453 nM. For the same compound, on Cav1.2, the inhibition at 30 min, 0.3 μM came out at 81%; the inhibition at 30 min, 1 μM amounted to 83%; the inhibition at 30 min, 3 μM came out at 82%; the inhibition at 30 min, 10 μM amounted to 81%.

For the compound `CCOC(=O)C1=C(C)NC(C)=C(C(=O)OCC)C1c1ccc([N+](=O)[O-])cc1` [diethyl 2,6-dimethyl-4-(4-nitrophenyl)-1,4-dihydropyridine-3,5-dicarboxylate], the Ki in data set [1] (setting [2]) was found to be 219 nM. For the same compound, the Ki in data set [1] (setting [3]) was 184 nM. Moreover, the Ki in data set [1] (setting [4]) worked out at 254 nM. In addition, at Cav1.2, the inhibition at 30 min, 0.3 μM worked out at 25%; the inhibition at 30 min, 1 μM is 43%; the inhibition at 30 min, 3 μM came to 59%; the inhibition at 30 min, 10 μM was 76%.

On to `C=Cc1ccccc1C1C(C(=O)OC)=C(C)NC(C)=C1C(=O)OC` [dimethyl 2,6-dimethyl-4-(2-vinylphenyl)-1,4-dihydropyridine-3,5-dicarboxylate], for which, in data set [1] (setting [2]), the inhibitory constant (Ki) stood at 489 nM. For the same compound, the Ki in data set [1] (setting [3]) stood at 570 nM. Also, the Ki in data set [1] (setting [4]) was determined as 408 nM. Further, at Cav1.2, the inhibition at 30 min, 0.3 μM was 74%; the inhibition at 30 min, 1 μM worked out at 74%; the inhibition at 30 min, 3 μM came to 78%; the inhibition at 30 min, 10 μM was 87%.

As to `COC(=O)C1=C(C)NC(C)=C(C(=O)OC)C1c1cccc(Cl)c1Cl` [dimethyl 4-(2,3-dichlorophenyl)-2,6-dimethyl-1,4-dihydropyridine-3,5-dicarboxylate], in data set [1] (setting [2]), the Ki stood at 375 nM. Further, the Ki in data set [1] (setting [3]) turned out to be 382 nM. Moreover, in data set [1] (setting [4]), the Ki is 368 nM. For the same compound, on Cav1.2, the inhibition at 30 min, 0.3 μM is 73%; the inhibition at 30 min, 1 μM came to 75%; the inhibition at 30 min, 3 μM came to 77%; the inhibition at 30 min, 10 μM was determined as 78%. Further, the inhibition at 30 min, 30 μM at Cav1.2 was 84%.

In the case of `COC(=O)C1=C(C)NC(C)=C(C(=O)OC)C1c1ccc(Cl)c(Cl)c1` [dimethyl 4-(3,4-dichlorophenyl)-2,6-dimethyl-1,4-dihydropyridine-3,5-dicarboxylate], the Ki in data set [1] (setting [2]) worked out at 203 nM. Besides, the Ki in data set [1] (setting [3]) is 83 nM. Moreover, the Ki in data set [1] (setting [4]) turned out to be 324 nM. Also, on Cav1.2, the inhibition at 30 min, 0.3 μM came out at 34%; the inhibition at 30 min, 1 μM was 59%; the inhibition at 30 min, 3 μM came to 77%; the inhibition at 30 min, 10 μM amounted to 87%. Also, the inhibition at 30 min, 30 μM at Cav1.2 came out at 89%.
